Data as given in patent US20120157401A1, “METHODS FOR TREATING NEUROFIBROMATOSIS” (PTC Therapeutics, Inc., priority 2009, published 2012).

tested on: hypoxia-inducible endogenous VEGF expression; assay: Hypoxia-inducible endogenous VEGF expression ELISA in HeLa cells, dose-response EC50 (Table 3); type: cell-based, human; details: HeLa cells, hypoxic conditions (1% O2), 24-48 hours, VEGF in conditioned media; read-out: ELISA EC50
In short: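 HeLa cells kept 24-48 h under hypoxia (1% O2, 5% CO2, nitrogen balance) with or without compound, e.g. seven concentrations; secreted VEGF in conditioned medium quantified by ELISA against a standard curve. Parallel Cell Titer Glo viability under identical conditions excludes cytotoxicity.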

| Compound | EC50 [µM] |
| --- | --- |
| C=CCOc1ccc(C2c3[nH]c4ccc(Cl)cc4c3CCN2C(=O)Oc2ccc(Cl)cc2)cc1 (stereo not shown) [Compound 400] | < 0.008 |

same assay, conditions: Homo sapiens, HeLa, read-out: ELISA EC50 μM

| Compound | EC50 [µM] |
| --- | --- |
| COCCN(C)CC(O)COc1ccc(C2c3[nH]c4ccc(Cl)cc4c3CCN2C(=O)Oc2ccc(F)cc2)cc1 (stereo not shown) [Compound 936] | < 0.008 |
| COCCCNCCCCCCOc1ccc(C2c3[nH]c4ccc(Cl)cc4c3CCN2C(=O)Oc2ccc(F)cc2)cc1 (stereo not shown) [Compound 775] | < 0.008 |
| CC(C)NCCCCOc1ccc(C2c3[nH]c4ccc(Cl)cc4c3CCN2C(=O)Oc2ccc(Cl)cc2)cc1 (stereo not shown) [Compound 700] | 0.008 to 0.04 |
| O=C(Oc1ccc(Cl)cc1)N1CCc2c([nH]c3ccc(Cl)cc23)C1c1ccc(OCCCOCCN2CCOCC2)cc1 (stereo not shown) [Compound 1555] | < 0.008 |
| O=C(Oc1ccc(Cl)cc1)N1CCc2c([nH]c3ccc(Cl)cc23)[C@@H]1c1ccc(OCCC(O)CN2CCOCC2)cc1 (stereo partly shown) [Compound 1279] | < 0.008 |
| O=C(Oc1ccc(Cl)cc1)N1CCc2c([nH]c3ccc(Cl)cc23)C1c1ccc(OCCCN2CCCC2)cc1 (stereo not shown) [Compound 429] | < 0.008 |
| O=C(Oc1ccc(Cl)cc1)N1CCc2c([nH]c3ccc(Cl)cc23)[C@@H]1c1ccc(OC2CCN(C[C@H](O)CO)CC2)cc1 [Compound 1704] | 0.008 to 0.04 |
| CN(C)CC(=O)Nc1ccc(C2c3[nH]c4ccc(Cl)cc4c3CCN2C(=O)Oc2ccc(Cl)cc2)cc1 (stereo not shown) [Compound 491] | 0.04 to 0.2 |
| COCCN(CCCOc1ccc(C2c3[nH]c4ccc(Cl)cc4c3CCN2C(=O)Oc2ccc(Cl)cc2)cc1)CCOC (stereo not shown) [Compound 916] | < 0.008 |
| CN(C)CCCOc1ccc(C2c3[nH]c4ccc(Cl)cc4c3CCN2C(=O)Oc2ccc(Cl)cc2)cc1 (stereo not shown) [Compound 479] | 0.04 to 0.2 |
| COCCN(C)CCCOc1ccc(C2c3[nH]c4ccc(Cl)cc4c3CCN2C(=O)Oc2ccc(Cl)cc2)cc1 (stereo not shown) [Compound 908] | < 0.008 |
| O=C(Oc1ccc(F)cc1)N1CCc2c([nH]c3ccc(Cl)cc23)C1c1ccc(OCC(O)CN2CCOCC2)cc1 (stereo not shown) [Compound 638] | < 0.008 |
| O=C(Oc1ccc(Cl)cc1)N1CCc2c([nH]c3ccc(Cl)cc23)C1c1ccc(OCC(O)CN2CCN(CCO)CC2)cc1 (stereo not shown) [Compound 960] | 0.008 to 0.04 |
| O=C(CN1CCOCC1)Nc1ccc(C2c3[nH]c4ccc(Cl)cc4c3CCN2C(=O)Oc2ccc(Cl)cc2)cc1 (stereo not shown) [Compound 454] | 0.008 to 0.04 |
| O=C(Oc1ccc(Cl)cc1)N1CCc2c([nH]c3ccc(Cl)cc23)C1c1ccc(OCCCCN2CCOCC2)cc1 (stereo not shown) [Compound 702] | 0.008 to 0.04 |

same assay, conditions: Homo sapiens; HeLa cells, hypoxic conditions (1% O2), 24-48 hours, VEGF in conditioned media; read-out: ELISA EC50

| Compound | EC50 [µM] |
| --- | --- |
| COc1ccc(C2c3[nH]c4ccc(C)cc4c3CCN2C(=O)Oc2ccc(Cl)cc2)cc1 (stereo not shown) [Compound 341] | 0.04 to 0.2 |
| COc1ccc(OC(=O)N2CCc3c([nH]c4ccc(Cl)cc34)C2c2ccc(OCC[C@H](O)CO)cc2)cc1 (stereo partly shown) [Compound 1181] | < 0.008 |
| O=C(Oc1ccc(Cl)cc1)N1CCc2c([nH]c3ccc(Cl)cc23)C1c1ccc(OCC(O)Cn2ccnn2)cc1 (stereo not shown) [Compound 973] | 0.008 to 0.04 |
| COc1ccc(OC(=O)N2CCc3c([nH]c4ccc(Cl)cc34)C2c2ccc(S(=O)(=O)N3CCOCC3)cc2)cc1 (stereo not shown) [Compound 455] | 0.008 to 0.04 |
| COc1cc(C2c3[nH]c4ccc(Cl)cc4c3CCN2C(=O)Oc2ccc(C)cc2)ccc1OCCCn1cncn1 (stereo not shown) [Compound 1152] | 0.008 to 0.04 |
| CC1(C)OC[C@H](CCOc2ccc([C@H]3c4[nH]c5ccc(Cl)cc5c4CCN3C(=O)Oc3ccc(Cl)cc3)cc2)O1 [Compound 1203] | < 0.008 |
| O=C(Oc1ccc(Br)cc1)N1CCc2c([nH]c3ccc(Cl)cc23)C1c1ccc(OCC(O)CO)cc1 (stereo not shown) [Compound 630] | < 0.008 |
| COc1ccc(C2c3[nH]c4ccc(Cl)cc4c3CCN2C(=O)Oc2ccc(C)cc2)cc1 (stereo not shown) [Compound 17] | < 0.008 |
| O=C(Oc1ccc(Cl)cc1)N1CCc2c([nH]c3ccc(Cl)cc23)C1c1ccc(OCCCO)cc1 (stereo not shown) [Compound 1111] | < 0.008 |
| COCCOCCOc1ccc(C2c3[nH]c4ccc(Cl)cc4c3CCN2C(=O)Oc2ccc(Cl)cc2)cc1 (stereo not shown) [Compound 675] | 0.008 to 0.04 |
| O=C(Oc1ccc(Cl)cc1)N1CCc2c([nH]c3ccc(Cl)cc23)C1c1ccc(OCCCCl)cc1 (stereo not shown) [Compound 921] | < 0.008 |
| COc1ccc(OC(=O)N2CCc3c([nH]c4ccc(Cl)cc34)C2c2ccc(OCCCn3cncn3)c(OC)c2)cc1 (stereo not shown) [Compound 1151] | 0.04 to 0.2 |
| O=C(Oc1ccc(F)cc1)N1CCc2c([nH]c3ccc(Cl)cc23)C1c1ccc(OCCCn2nccn2)cc1 (stereo not shown) [Compound 1017] | < 0.008 |
| COC(=O)c1ccc(C2c3[nH]c4ccc(Br)cc4c3CCN2C(=O)Oc2ccccc2Cl)cc1 (stereo not shown) [Compound 593] | 0.008 to 0.04 |
| O=C(Oc1ccc(F)cc1)N1CCc2c([nH]c3ccc(Cl)cc23)[C@@H]1c1ccc(OCC[C@H](O)CO)cc1 [Compound 1293] | < 0.008 |
| COCCOc1ccc(C2c3[nH]c4ccc(Cl)cc4c3CCN2C(=O)Oc2ccc(OC)cc2)cc1 (stereo not shown) [Compound 465] | 0.008 to 0.04 |
| O=C(Oc1ccc(F)cc1)N1CCc2c([nH]c3ccc(Cl)cc23)C1c1ccc(OCC2CO2)cc1 (stereo not shown) [Compound 967] | 0.008 to 0.04 |
| COCCOCCOc1ccc(C2c3[nH]c4ccc(Cl)cc4c3CCN2C(=O)Oc2ccc(Br)cc2)cc1 (stereo not shown) [Compound 680] | < 0.008 |
| COc1ccc(C2c3[nH]c4ccc(Cl)cc4c3CCN2C(=O)Oc2ccc(Cl)cc2)cc1OCCCCn1cncn1 (stereo not shown) [Compound 1091] | 0.2 to 1 |
| COCCOCCOc1ccc(C2c3[nH]c4ccc(Cl)cc4c3CCN2C(=O)Oc2ccccc2)cc1 (stereo not shown) [Compound 670] | < 0.008 |
| CC(=O)NCC(O)COc1ccc(C2c3[nH]c4ccc(Cl)cc4c3CCN2C(=O)Oc2ccc(Cl)cc2)cc1 (stereo not shown) [Compound 847] | 0.008 to 0.04 |
| O=C(Oc1ccc(Cl)cc1)N1CCc2c([nH]c3ccc(Cl)cc23)C1c1ccc(Cl)cc1 (stereo not shown) [Compound 351] | 0.008 to 0.04 |
| O=C(Oc1ccc(Cl)cc1)N1CCc2c([nH]c3ccc(Cl)cc23)[C@H]1c1ccc(OCCCn2ccnn2)cc1 [Compound 1069] | < 0.008 |
| C=CCOc1ccc(C2c3[nH]c4ccc(Cl)cc4c3CCN2C(=O)Oc2ccc(F)cc2)cc1 (stereo not shown) [Compound 409] | < 0.008 |
| O=C(Oc1ccc(Cl)cc1)N1CCc2c([nH]c3ccc(Cl)cc23)[C@@H]1c1ccc(OCCC(O)Cn2cncn2)cc1 (stereo partly shown) [Compound 1282] | < 0.008 |
| O=C(Nc1ccc(C2c3[nH]c4ccc(Cl)cc4c3CCN2C(=O)Oc2ccc(Cl)cc2)cc1)c1ccco1 (stereo not shown) [Compound 437] | < 0.008 |
| O=C(Oc1ccccc1)N1CCc2c([nH]c3ccc(Cl)cc23)C1c1ccc(OCCCn2nccn2)cc1 (stereo not shown) [Compound 1078] | 0.008 to 0.04 |
| NC(=O)COc1ccc(C2c3[nH]c4ccc(Cl)cc4c3CCN2C(=O)Oc2ccccc2Cl)cc1 (stereo not shown) [Compound 1213] | 0.04 to 0.2 |
| CCOC(COc1ccc(C2c3[nH]c4ccc(Cl)cc4c3CCN2C(=O)Oc2ccc(Cl)cc2)cc1)OCC (stereo not shown) [Compound 1228] | < 0.008 |
| CC1(C)OC[C@@H](COc2ccc([C@H]3c4[nH]c5ccc(Cl)cc5c4CCN3C(=O)Oc3ccc(Cl)cc3)cc2)O1 [Compound 1260] | < 0.008 |

same assay, conditions: Homo sapiens; HeLa cells, hypoxic conditions (1% O2), VEGF ELISA of conditioned media; read-out: ELISA EC50

| Compound | EC50 [µM] |
| --- | --- |
| CC(CO)(CO)COc1ccc(C2c3[nH]c4ccc(Br)cc4c3CCN2C(=O)Oc2ccc(F)cc2)cc1 (stereo not shown) [Compound 1352] | < 0.008 |
| O=C(Oc1ccc(Cl)cc1)N1CCc2c([nH]c3ccc(Cl)cc23)[C@@H]1c1ccc(OCc2cn(C3OC(CO)C(O)C(O)C3O)nn2)cc1 (stereo partly shown) [Compound 1674] | 0.2 to 1 |
| [H]/N=c1\sc(C)cn1CCOc1ccc(C2c3[nH]c4ccc(Cl)cc4c3CCN2C(=O)Oc2ccc(F)cc2)cc1 (stereo not shown) [Compound 1392] | < 0.008 |
| [H]/N=c1\sc(C)cn1CCOc1ccc(C2c3[nH]c4ccc(Cl)cc4c3CCN2C(=O)Oc2ccc(Cl)cc2)cc1 (stereo not shown) [Compound 1394] | < 0.008 |
| CCS(=O)(=O)NCC(O)CCOc1ccc([C@H]2c3[nH]c4ccc(Cl)cc4c3CCN2C(=O)Oc2ccc(C)cc2)cc1 (stereo partly shown) [Compound 1646] | < 0.008 |
| CN1C(=O)CN(CCCOc2ccc(C3c4[nH]c5ccc(Cl)cc5c4CCN3C(=O)Oc3ccc(Cl)cc3)cc2)C1=O (stereo not shown) [Compound 1673] | < 0.008 |
| CCC(=O)NCC(O)COc1ccc(C2c3[nH]c4ccc(Cl)cc4c3CCN2C(=O)Oc2ccc(Cl)cc2)cc1 (stereo not shown) [Compound 1558] | 0.008 to 0.04 |
| O=C(Oc1ccc(Cl)cc1)N1CCc2c([nH]c3ccc(Cl)cc23)C1c1ccc(OCCNc2ncncn2)cc1 (stereo not shown) [Compound 1442] | < 0.008 |
| O=C(Oc1ccc(Cl)cc1)N1CCc2c([nH]c3ccc(Cl)cc23)[C@@H]1c1ccc(OCCC(O)CNS(=O)(=O)C2CC2)cc1 (stereo partly shown) [Compound 1639] | < 0.008 |
| CCC(CO)(CO)COc1ccc(C2c3[nH]c4ccc(Br)cc4c3CCN2C(=O)Oc2ccc(Cl)cc2)cc1 (stereo not shown) [Compound 1358] | < 0.008 |
| CC1(C)OC[C@H](CCOc2ccc([C@@H]3c4[nH]c5ccc(Cl)cc5c4CCN3C(=O)Oc3ccc(Cl)cc3)cc2)O1 [Compound 1331] | > 1 |
| CC(=O)Oc1ccc([C@@H]2c3[nH]c4ccc(Cl)cc4c3CCN2C(=O)Oc2ccc(Cl)cc2)cc1 [Compound 1539] | 0.04 to 0.2 |
| O=C(Oc1ccc(Cl)cc1)N1CCc2c([nH]c3ccc(Cl)cc23)C1c1ccc(OC2COC(c3ccccc3)OC2)cc1 (stereo not shown) [Compound 1569] | < 0.008 |
| O=C(Oc1ccc(Cl)cc1)N1CCc2c([nH]c3ccc(Cl)cc23)[C@@H]1c1ccc(OCCc2cn(C3OC(CO)C(O)C(O)C3O)nn2)cc1 (stereo partly shown) [Compound 1676] | > 1 |
| O=C(Oc1ccc(F)cc1)N1CCc2c([nH]c3ccc(Br)cc23)C1c1ccc(OCC[C@H](O)CO)cc1 (stereo partly shown) [Compound 1348] | < 0.008 |
| N#CCOc1ccc(C2c3[nH]c4ccc(Cl)cc4c3CCN2C(=O)Oc2ccc(F)cc2)cc1 (stereo not shown) [Compound 1548] | 0.008 to 0.04 |
| Cc1ccc(OC(=O)N2CCc3c([nH]c4ccc(Cl)cc34)[C@@H]2c2ccc(OCCC(O)CNS(=O)(=O)C3CC3)cc2)cc1 (stereo partly shown) [Compound 1647] | < 0.008 |
| CCS(=O)(=O)NCC(O)COc1ccc(C2c3[nH]c4ccc(Cl)cc4c3CCN2C(=O)Oc2ccc(Cl)cc2)cc1 (stereo not shown) [Compound 1565] | 0.008 to 0.04 |
